# Measured values: patent US20040110802A1, “Antibacterial benzoic acid derivatives” (priority 2002, published 2004)
# Tested on: SAUR 9218
# Assay: MIC Test Method, standard agar dilution
# Assay type: cell-based
# Details: agar dilution, Mueller Hinton agar, incubated overnight at 35° C.; lowest concentration that inhibits visible growth; read-out: SAUR 9218 MIC
# Method: The in vitro MiCs of test compounds were determined by a standard agar dilution method. A stock drug solution of each analog was prepared in the preferred solvent, usually DMSO:H2O (1:3). Serial 2-fold dilutions of each sample are made using 1.0 ml aliquots of sterile distil]ed water. To each 1.0 ml aliquot of drug was added 9 ml of molten Mueller Hinton agar medium. The drug-supplemented agar was mixed, poured into 15×100 mm petri dishes, and allowed to solidify and dry prior to inoculation.
# Vials of each of the test organisms are maintained frozen in the vapor phase of a liquid nitrogen freezer. Test cultures are grown overnight at 35° C. on the medium appropriate for the organism. Colonies are harvested with a sterile swab, and cell suspensions are prepared in Trypticase Soy broth (TSB) to equal the turbidity of a 0.5 McFamland standard. A 1:20 dilution of each suspension was made in TSB. The plates containing the drug supplemented agar are inoculated with a 0.001 ml drop of the cell suspension using a Steers replicator, yielding approximately 10^4 to 10^5 cells per spot. The plates are incubated overnight at 35° C.
# Following incubation the Minimum Inhibitory Concentration (MIC μg/ml), the lowest concentration of drug that inhibits visible growth of the organism, was read and recorded.
row,SMILES,MIC
1,Cc1sc(C(=O)Nc2ccc(Br)cc2C(=O)O)cc1S(=O)(=O)N1CCN(c2cccc(C(F)(F)F)c2)CC1,32 µg/mL
2,Cc1nc2cc(NS(=O)(=O)c3cc(C(=O)Nc4ccc(Br)cc4C(=O)O)sc3C)ccc2s1,32 µg/mL
3,CCOP(=O)(Cc1ccc(NS(=O)(=O)c2cc(C(=O)Nc3ccc(Br)cc3C(=O)O)sc2C)cc1)OCC,64 µg/mL
4,Cc1c(S(=O)(=O)NC2Cc3ccccc3C2)csc1C(=O)Nc1ccc(Br)cc1C(=O)O,16 µg/mL
5,Cc1sc(C(=O)Nc2ccc(Br)cc2C(=O)O)cc1S(=O)(=O)NCCc1ccc(N)cc1,32 µg/mL
6,Cn1c(C(=O)Nc2ccc(C#N)cc2C(=O)O)cc2ccc(NC(=O)c3ccc(OC(F)(F)F)cc3)cc21,2 µg/mL
7,Cn1c(C(=O)Nc2ccc(C#N)cc2C(=O)O)cc2ccc(OCC3CC3)cc21,0.25 µg/mL
8,O=C(Nc1ccc(Br)cc1C(=O)O)c1cnc(CC(O)[C@H](O)CO)cn1 (stereo partly shown),> 128 µg/mL
9,COC1CCn2c(C(=O)Nc3ccc(C#N)cc3C(=O)O)cc3cccc1c32 (stereo not shown),0.5 µg/mL
10,Cn1c(C(=O)Nc2ccc(C#N)cc2C(=O)O)cc2cccc(-c3ccccc3C(F)(F)F)c21,0.06 µg/mL
11,Cn1c(C(=O)Nc2ccc(C#N)cc2C(=O)O)cc2cccc(-c3ccccc3)c21,0.25 µg/mL
12,Cn1c(C(=O)Nc2ccc(C#N)cc2C(=O)O)cc2cccc(-c3ccc(C(C)(C)C)cc3)c21,4 µg/mL
13,Cn1c(C(=O)Nc2ccc(C#N)cc2C(=O)O)cc2ccc(NS(C)(=O)=O)cc21,4 µg/mL
14,COCOCC(CCc1cc(C(=O)Nc2ccc(Br)cc2C(=O)O)no1)OCOC (stereo not shown),8 µg/mL
15,Cn1c(C(=O)Nc2ccc(C#N)cc2C(=O)O)cc2ccc(NC(=O)c3ccno3)cc21,0.5 µg/mL
16,CCCCCNC(=O)Nc1ccc2cc(C(=O)Nc3ccc(C#N)cc3C(=O)O)n(C)c2c1,0.5 µg/mL
17,Cn1c(C(=O)Nc2ccc(C#N)cc2C(=O)O)cc2cccc(-c3ccccc3F)c21,0.25 µg/mL
18,Cc1noc(C)c1S(=O)(=O)Nc1ccc2cc(C(=O)Nc3ccc(C#N)cc3C(=O)O)n(C)c2c1,2 µg/mL
19,CN(C)c1ccc2onc(C(=O)Nc3ccc(C#N)cc3C(=O)O)c2c1,0.25 µg/mL
20,COCCNc1ccc2onc(C(=O)Nc3ccc(C#N)cc3C(=O)O)c2c1,1 µg/mL
21,N#Cc1ccc(NC(=O)c2noc3ccc(NCC(O)CO)cc23)c(C(=O)O)c1 (stereo not shown),2 µg/mL

# Further lines, results first:
row,MIC,SMILES
1,64 µg/mL,Cc1c(S(=O)(=O)Nc2ccc(F)c(Cl)c2)csc1C(=O)Nc1ccc(Br)cc1C(=O)O
2,4 µg/mL,Cc1sc(C(=O)Nc2ccc(Br)cc2C(=O)O)cc1S(=O)(=O)Nc1ccc(Cl)cc1
3,> 128 µg/mL,CCN(CC)c1ccc(NS(=O)(=O)c2cc(C(=O)Nc3ccc(Br)cc3C(=O)O)cs2)cc1
4,8 µg/mL,Cc1sc(C(=O)Nc2ccc(Br)cc2C(=O)O)cc1S(=O)(=O)Nc1ccc2c(c1)OCCO2
5,1 µg/mL,CC(=O)Nc1ccc2cc(C(=O)Nc3ccc(C#N)cc3C(=O)O)n(C)c2c1
6,0.5 µg/mL,Cn1c(C(=O)Nc2ccc(C#N)cc2C(=O)O)cc2ccc(-c3ccccc3F)cc21
7,16 µg/mL,Cn1cc(C(=O)Nc2ccc(C#N)cc2C(=O)O)c2ccccc21
8,0.5 µg/mL,Cn1c(C(=O)Nc2ccc(C#N)cc2C(=O)O)cc2cccc(Br)c21
9,128 µg/mL,COC(Cc1cnc(C(=O)Nc2ccc(Br)cc2C(=O)O)cn1)[C@H]1COC2(CCCCC2)O1 (stereo partly shown)
10,0.5 µg/mL,N#Cc1ccc(NC(=O)c2cc3cccc4c3n2CCC4O)c(C(=O)O)c1 (stereo not shown)
11,0.25 µg/mL,N#Cc1ccc(NC(=O)c2cc3cccc4c3n2CCC4Oc2ccccc2)c(C(=O)O)c1 (stereo not shown)
12,0.5 µg/mL,Cc1ccc(-c2cccc3cc(C(=O)Nc4ccc(C#N)cc4C(=O)O)n(C)c23)s1
13,> 128 µg/mL,COCC(OC)C(Cc1cnc(C(=O)Nc2ccc(Br)cc2C(=O)O)cn1)OC (stereo not shown)
14,> 128 µg/mL,COC(Cc1cnc(C(=O)Nc2ccc(Br)cc2C(=O)O)cn1)[C@H](O)CO (stereo partly shown)
15,2 µg/mL,COc1ccc(OC)c(NC(=O)Nc2ccc3cc(C(=O)Nc4ccc(C#N)cc4C(=O)O)n(C)c3c2)c1
16,8 µg/mL,Cn1c(C(=O)Nc2ccc(C#N)cc2C(=O)O)cc2cccc(-c3ccc(S(C)(=O)=O)cc3)c21
17,0.25 µg/mL,COc1ccccc1-c1cccc2cc(C(=O)Nc3ccc(C#N)cc3C(=O)O)n(C)c12
18,0.125 µg/mL,Cc1ccccc1-c1cccc2cc(C(=O)Nc3ccc(C#N)cc3C(=O)O)n(C)c12
19,0.25 µg/mL,N#Cc1ccc(NC(=O)c2ccc(SCc3ccncc3)nn2)c(C(=O)O)c1
20,0.5 µg/mL,CCNc1ccc2onc(C(=O)Nc3ccc(C#N)cc3C(=O)O)c2c1
21,0.5 µg/mL,N#Cc1ccc(NC(=O)c2noc3ccc(NCC4CC4)cc23)c(C(=O)O)c1
22,> 128 µg/mL,COCOCC(OCOC)C(Cc1cnc(C(=O)Nc2ccc(Br)cc2C(=O)O)cn1)OC (stereo not shown)
